Experimental findings from patent US20250136594A1 (Tango Therapeutics, Inc., priority 2022, published 2025) are described below.

In general, IC50 refers to the midpoint of a concentration-inhibition curve. As usually defined, the IC90 is the concentration at which the effect reaches the 90% level.

The subject of test [1] is HAP1 MTAP-deleted cell line. Description: Viability assay, HAP1 MTAP-deleted cell line. The class given is cell-based. Particulars: Homo sapiens; viability assay, HAP1 MTAP-deleted cell line; read-out: Hap1 MTAP deleted viability IC50.
For test [2], the system named is SDMA in HAP1 MTAP-deleted (MTAP-null) cell line (PRMT5 inhibition). The test can be described thus: SDMA in-cell western assay, HAP1 MTAP-deleted cell line. Particulars: for IC50 / IC90: Homo sapiens; for IC50: HAP1, read-out: Hap1 MTAP deleted IC50; for IC90: HAP1, read-out: Hap1 MTAP deleted IC90; for Hap1 MTAP intact/deleted ratio: ratio of SDMA IC50 in HAP1 MTAP-intact to HAP1 MTAP-deleted cell line.

Test [3] concerns SDMA in HAP1 MTAP-intact cell line (PRMT5 inhibition). Description: SDMA in-cell western assay, HAP1 MTAP-intact cell line. Particulars: Homo sapiens, HAP1, read-out: Hap1 MTAP intact IC50.

`CCN(Cc1ccc(C(F)(F)F)cc1C)C(=O)C(=O)Nc1cnc(N)c2cn[nH]c12` [Compound 104, N-(4-Amino-1H-pyrazolo[4,3-c]pyridin-7-yl)-N′-ethyl-N′-[[2-methyl-4-(trifluoromethyl)phenyl]methyl]oxamide]: the values for the IC50 in test [1], in test [2] and in test [3] were less than 0.1 µM, less than 0.005 µM and more than 0.05 µM, respectively. Besides, in test [2], the IC90 was less than 0.075 µM. Further, the “Hap1 MTAP intact/deleted ratio” value in test [2] was “A (IC50 ratio greater than or equal to 30 fold)”.

`Nc1ncc(NC(=O)C(=O)N(Cc2ccc(C(F)(F)F)cc2)C2CC2)c2[nH]ncc12` [Compound 107, N-(4-Amino-1H-pyrazolo[4,3-c]pyridin-7-yl)-N′-cyclopropyl-N′-[[4-(trifluoromethyl)phenyl]methyl]oxamide]: in test [1], the concentration for half-maximal inhibition (IC50) was less than 0.1 µM. Moreover, in test [2], the concentration for half-maximal inhibition (IC50) was less than 0.005 µM, the IC90 was less than 0.075 µM and the “Hap1 MTAP intact/deleted ratio” value was “C (IC50 ratio of less than 15 fold)”. The IC50 in test [3] was 0.005 to 0.05 µM.

With `Nc1ncc(NC(=O)C(=O)N(Cc2ccccc2)Cc2ccc(C(F)(F)F)cn2)c2[nH]ncc12` [Compound 108, N-(4-amino-1H-pyrazolo[4,3-c]pyridin-7-yl)-N′-benzyl-N′-[[5-(trifluoromethyl)-2-pyridyl]methyl]oxamide], the IC50 in test [1] is less than 0.1 µM. In test [2], the IC50 is less than 0.005 µM, the IC90 was less than 0.075 µM and the “Hap1 MTAP intact/deleted ratio” value was “B (IC50 ratio greater than or equal to 15 fold but lower than 30 fold)”. Besides, in test [3], the 50% inhibitory concentration (IC50) lay in the range of 0.005 to 0.05 µM.

`Cc1ccccc1CN(Cc1ccc(Cl)cc1)C(=O)C(=O)Nc1cnc(N)c2cn[nH]c12` [Compound 109, N-(4-amino-1H-pyrazolo[4,3-c]pyridin-7-yl)-N′-[(4-chlorophenyl)methyl]-N′-(o-tolylmethyl)oxamide]: the IC50 in test [1] is less than 0.1 µM. Further, in test [2], the IC50 was less than 0.005 µM, the IC90 is less than 0.075 µM and the “Hap1 MTAP intact/deleted ratio” value is “C (IC50 ratio of less than 15 fold)”. Further, in test [3], the IC50 lay within 0.005 to 0.05 µM.

For `CC(C)CN(Cc1ccc(S(F)(F)(F)(F)F)cc1)C(=O)C(=O)Nc1cnc(N)c2cn[nH]c12` [Compound 110], the IC50 in test [1] is less than 0.1 µM. Besides, in test [2], the IC50 is less than 0.005 µM, the IC90 is less than 0.075 µM and the “Hap1 MTAP intact/deleted ratio” value is listed as “C (IC50 ratio of less than 15 fold)”. Further, the IC50 in test [3] fell in the range of 0.005 to 0.05 µM.

Regarding `Cc1cccnc1CN(Cc1ccccc1)C(=O)C(=O)Nc1cnc(N)c2cn[nH]c12` [Compound 114, N-(4-amino-1H-pyrazolo[4,3-c]pyridin-7-yl)-N′-benzyl-N′-[(3-methyl-2-pyridyl)methyl]oxamide], in test [1], the half-maximal inhibitory concentration (IC50) is less than 0.1 µM. In addition, in test [2], the IC50 is less than 0.005 µM, the concentration for an effect of 90% (IC90) is less than 0.075 µM and the “Hap1 MTAP intact/deleted ratio” value is given as “C (IC50 ratio of less than 15 fold)”. Further, the IC50 in test [3] fell in the range of 0.005 to 0.05 µM.

For `Cc1cc(F)cnc1CN(Cc1ccccc1)C(=O)C(=O)Nc1cnc(N)c2cn[nH]c12` [Compound 116, N-(4-amino-2H-pyrazolo[4,3-c]pyridin-7-yl)-N′-benzyl-N′-[(5-fluoro-3-methyl-2-pyridyl)methyl]oxamide], the IC50 in test [1] was less than 0.1 µM. In test [2], the IC50 was less than 0.005 µM, the IC90 is less than 0.075 µM and the “Hap1 MTAP intact/deleted ratio” value is “B (IC50 ratio greater than or equal to 15 fold but lower than 30 fold)”. Also, in test [3], the IC50 lay within 0.005 to 0.05 µM.

Regarding `Cc1ccccc1CN(C(=O)C(=O)Nc1cnc(N)c2cn[nH]c12)[C@@H](C)C(C)C` [Compound 117, (S)—N^1-(4-amino-1H-pyrazolo[4,3-c]pyridin-7-yl)-N^2-(2-methylbenzyl)-N^2-(3-methylbutan-2-yl)oxalamide], the IC50 is 0.1 to 1 µM in test [1], less than 0.005 µM in test [2] and more than 0.05 µM in test [3]. Besides, the IC90 in test [2] lay in the range of 0.075 to 0.125 µM. Besides, the “Hap1 MTAP intact/deleted ratio” value in test [2] is reported as “B (IC50 ratio greater than or equal to 15 fold but lower than 30 fold)”.

For `Nc1ncc(NC(=O)C(=O)N(Cc2ccc(C(F)(F)F)cc2)C2CCC2)c2[nH]ncc12` [Compound 118], the concentration for half-maximal inhibition (IC50) in test [1] is less than 0.1 µM. Also, in test [2], the 50% inhibitory concentration (IC50) is less than 0.005 µM, the IC90 was in the range of 0.075 to 0.125 µM and the “Hap1 MTAP intact/deleted ratio” value is given as “B (IC50 ratio greater than or equal to 15 fold but lower than 30 fold)”. In addition, the IC50 in test [3] was more than 0.05 µM.

Take `Nc1ncc(NC(=O)C(=O)N(Cc2ccccc2)Cc2ncccc2Cl)c2[nH]ncc12` [Compound 120, N-(4-amino-2H-pyrazolo[4,3-c]pyridin-7-yl)-N′-benzyl-N′-[(3-chloro-2-pyridyl)methyl]oxamide]: the results for the IC50 in test [1], in test [2] and in test [3] were less than 0.1 µM, less than 0.005 µM and 0.005 to 0.05 µM, respectively. Also, the concentration for an effect of 90% (IC90) in test [2] is less than 0.075 µM. Further, in test [2], the “Hap1 MTAP intact/deleted ratio” value is given as “B (IC50 ratio greater than or equal to 15 fold but lower than 30 fold)”.

On to `C[C@H](c1ccc(C(F)(F)C(F)(F)F)cc1)N(C)C(=O)C(=O)Nc1cnc(N)c2cn[nH]c12` [Compound 121, N-(4-amino-1H-pyrazolo[4,3-c]pyridin-7-yl)-N′-methyl-N′—[(1R)-1-[4-(1,1,2,2,2-pentafluoroethyl)phenyl]ethyl]oxamide], for which the IC50 in test [1] was less than 0.1 µM. Moreover, in test [2], the IC50 is less than 0.005 µM, the IC90 is less than 0.075 µM and the “Hap1 MTAP intact/deleted ratio” value is given as “B (IC50 ratio greater than or equal to 15 fold but lower than 30 fold)”. In test [3], the IC50 was 0.005 to 0.05 µM.

Take `Cc1c(CN(Cc2ccccn2)C(=O)C(=O)Nc2cnc(N)c3cn[nH]c23)cccc1N(C)C` [Compound 124, N1-(4-amino-1H-pyrazolo[4,3-c]pyridin-7-yl)-N^2-(3-(dimethylamino)-2-methylbenzyl)-N^2-(pyridin-2-ylmethyl)oxalamide]: the figures for the IC50 in test [1], in test [2] and in test [3] were less than 0.1 µM, less than 0.005 µM and 0.005 to 0.05 µM, respectively. For the same compound, in test [2], the IC90 is less than 0.075 µM. In addition, in test [2], the “Hap1 MTAP intact/deleted ratio” value is “C (IC50 ratio of less than 15 fold)”.

`Cn1nccc1CN(Cc1ccccc1)C(=O)C(=O)Nc1cnc(N)c2cn[nH]c12` [Compound 125, N-(4-amino-1H-pyrazolo[4,3-c]pyridin-7-yl)-N′-benzyl-N′-[(2-methylpyrazol-3-yl)methyl]oxamide]: the figures for the IC50 in test [1], in test [2] and in test [3] were less than 0.1 µM, less than 0.005 µM and 0.005 to 0.05 µM, respectively. For the same compound, the 90% effect concentration (IC90) in test [2] was less than 0.075 µM. Moreover, the “Hap1 MTAP intact/deleted ratio” value in test [2] is on record as “B (IC50 ratio greater than or equal to 15 fold but lower than 30 fold)”.

Take `C[C@@H](c1ccc(C(F)(F)F)cn1)N(C)C(=O)C(=O)Nc1cnc(N)c2cn[nH]c12` [Compound 127, N-(4-amino-1H-pyrazolo[4,3-c]pyridin-7-yl)-N′-methyl-N′—[(1S)-1-[5-(trifluoromethyl)-2-pyridyl]ethyl]oxamide]: the half-maximal inhibitory concentration (IC50) in test [1] was in the range of 0.1 to 1 µM. In test [2], the IC50 was in the range of 0.005 to 0.05 µM, the concentration for an effect of 90% (IC90) was more than 0.125 µM and the “Hap1 MTAP intact/deleted ratio” value is “A (IC50 ratio greater than or equal to 30 fold)”. Also, in test [3], the IC50 is more than 0.05 µM.

`CC[C@H](C)CN(Cc1ccccn1)C(=O)C(=O)Nc1cnc(N)c2cn[nH]c12` [Compound 128, (S)—N^1-(4-amino-1H-pyrazolo[4,3-c]pyridin-7-yl)-N^2-(2-methylbutyl)-N^2-(pyridin-2-ylmethyl)oxalamide]: the IC50 in test [1] is less than 0.1 µM. For the same compound, in test [2], the IC50 was less than 0.005 µM, the IC90 is less than 0.075 µM and the “Hap1 MTAP intact/deleted ratio” value is recorded as “A (IC50 ratio greater than or equal to 30 fold)”. In addition, in test [3], the half-inhibitory concentration (IC50) is more than 0.05 µM.

Turning to `Cc1cccc(CN(Cc2ccccc2)C(=O)C(=O)Nc2cnc(N)c3cn[nH]c23)c1C` [Compound 130, N-(4-amino-2H-pyrazolo[4,3-c]pyridin-7-yl)-N′-benzyl-N′—[(2,3-dimethylphenyl)methyl]oxamide], the IC50 is less than 0.1 µM in test [1], less than 0.005 µM in test [2] and 0.005 to 0.05 µM in test [3]. The IC90 in test [2] is less than 0.075 µM. The “Hap1 MTAP intact/deleted ratio” value in test [2] is “B (IC50 ratio greater than or equal to 15 fold but lower than 30 fold)”.

Regarding `C[C@@H](c1ccc(C(F)(F)C(F)(F)F)cc1)N(C)C(=O)C(=O)Nc1cnc(N)c2cn[nH]c12` [Compound 131, N-(4-amino-1H-pyrazolo[4,3-c]pyridin-7-yl)-N′-methyl-N′—[(1S)-1-[4-(1,1,2,2,2-pentafluoroethyl)phenyl]ethyl]oxamide], in test [1], the IC50 is less than 0.1 µM. Also, in test [2], the IC50 fell in the range of 0.005 to 0.05 µM, the IC90 is more than 0.125 µM and the “Hap1 MTAP intact/deleted ratio” value is listed as “A (IC50 ratio greater than or equal to 30 fold)”. Further, the IC50 in test [3] is more than 0.05 µM.

For the compound `Nc1ncc(NC(=O)C(=O)N(Cc2ccccn2)Cc2cccc3ccccc23)c2[nH]ncc12` [Compound 132, N-(4-amino-2H-pyrazolo[4,3-c]pyridin-7-yl)-N′-(1-naphthylmethyl)-N′-(2-pyridylmethyl)oxamide], the 50% inhibitory concentration (IC50) in test [1] is less than 0.1 µM. In addition, in test [2], the IC50 is less than 0.005 µM, the IC90 is less than 0.075 µM and the “Hap1 MTAP intact/deleted ratio” value is listed as “A (IC50 ratio greater than or equal to 30 fold)”. In test [3], the IC50 lay in the range of 0.005 to 0.05 µM.

Consider `CCN(C(=O)C(=O)Nc1cnc(N)c2cn[nH]c12)[C@@H](C)c1ccc(C(F)(F)C(F)(F)F)cc1F` [Compound 134, N-(4-Amino-1H-pyrazolo[4,3-c]pyridin-7-yl)-N′-ethyl-N′—[(1S)-1-[2-fluoro-4-(1,1,2,2,2-pentafluoroethyl)phenyl]ethyl]oxamide], for which, in test [1], the IC50 is 0.1 to 1 µM. Moreover, in test [2], the IC50 lay within 0.005 to 0.05 µM, the IC90 was more than 0.125 µM and the “Hap1 MTAP intact/deleted ratio” value is listed as “A (IC50 ratio greater than or equal to 30 fold)”. Further, the IC50 in test [3] was more than 0.05 µM.
